According to ChEMBL document CHEMBL4808236, “New phorbol ester derivatives as potent anti-HIV agents” (Bioorg Med Chem Lett, 2021):

Key:
[1] = test system: Human immunodeficiency virus 1; assay: Antiviral activity against HIV-1 NL4-3 infected in human MT4 cells assessed as reduction in p24 production treated at 48 hrs post-infection and measured on day 4 post-viral infection by ELISA; type: functional, organism-based; conditions: Human immunodeficiency virus 1, NL4-3, MT4
[2] = Antiproliferative activity against human KB-VIN cells assessed as reduction in cell viability after 72 hrs by SRB assay; type: functional, cell-based; conditions: KBVIN
[3] = test system: MRC5; assay: Cytotoxicity against human MRC5 cells assessed as inhibition of cell viability; type: cell-based
[4] = test system: MDA-MB-231; assay: Antiproliferative activity against human MDA-MB-231 cells assessed as reduction in cell viability measured after 72 hrs by SRB assay; type: functional, cell-based; conditions: MDA-MB-231, 72 h
[5] = test system: MCF7; assay: Antiproliferative activity against human MCF7 cells assessed as reduction in cell viability measured after 72 hrs by SRB assay; type: functional, cell-based; conditions: MCF7, 72 h
[6] = test system: KB; assay: Antiproliferative activity against human KB cells assessed as reduction in cell viability measured after 72 hrs by SRB assay; type: functional, cell-based
[7] = test system: MT4; assay: Cytotoxicity against human MT4 cells assessed as reduction in cell viability by CellTiter-Glo luminescence assay; type: cell-based
[8] = Selectivity index, ratio of CC75 for cytotoxicity against human MT4 cells to IC50 for antiviral activity against HIV-1 NL4-3 infected in human MT4 cells; type: toxicity, cell-based; conditions: read-out: Selectivity Index
[9] = test system: A549; assay: Antiproliferative activity against human A549 cells assessed as reduction in cell viability measured after 72 hrs by SRB assay; conditions: A549, 72 h

Structure (SMILES) | IC50 [1] [µM] | IC50 [4] [µM] | IC50 [5] [µM] | IC50 [6] [µM] | IC50 [9] [µM] | IC50 [2] [µM] | IC50 [3] [µM] | CC75 [7] [µM] | selectivity ratio [8]
CC1=C[C@H]2[C@@]3(O)[C@H](C)[C@@H](OC(=O)CCc4ccccc4)[C@]4(OC(=O)CCc5ccccc5)[C@H]([C@@H]3C=C(CO)C[C@]2(O)C1=O)C4(C)C | 0.00049 | > 10 | 10.5 | 8.31 | > 10 | > 10 | 11.4 | > 5 | > 10000
CC1=C[C@H]2[C@@]3(O)[C@H](C)[C@@H](OC(=O)/C=C/c4ccccc4)[C@]4(OC(=O)/C=C/c5ccccc5)[C@H]([C@@H]3C=C(CO)C[C@]2(O)C1=O)C4(C)C | 0.00921 | 8.29 | 6.85 | 6.45 | 4.7 | 6.82 | 36.2 | > 5 | > 500
CC(=O)O[C@@]12[C@H](OC(=O)/C=C/c3ccc(Cl)cc3)[C@@H](C)[C@@]3(O)[C@@H](C=C(CO)C[C@]4(O)C(=O)C(C)=C[C@@H]34)[C@@H]1C2(C)C | 0.00075 | > 10 | > 10 | > 10 | > 10 | > 10 | 7.13 | > 5 | > 5000

Now from value to molecule, other results behind:

IC50 [1] [µM] | IC50 [4] [µM] | IC50 [5] [µM] | IC50 [6] [µM] | IC50 [9] [µM] | Structure (SMILES) | IC50 [2] [µM] | IC50 [3] [µM] | CC75 [7] [µM] | selectivity ratio [8]
0.0135 | 0.21 | > 10 | > 40 | 0.08 | CCCCCCCCCCCCCCCCCCCC(=O)O[C@]12C([C@@H]3C=C(CO)C[C@]4(O)C(=O)C(C)=C[C@H]4[C@@]3(O)[C@H](C)[C@H]1O)C2(C)C (single isomer, unassigned) | > 40 |  | > 5 | > 350
0.0872 | > 10 | > 10 | > 10 | > 10 | CCCC(=O)O[C@]12C([C@@H]3C=C(CO)C[C@]4(O)C(=O)C(C)=C[C@H]4[C@@]3(O)[C@H](C)[C@H]1OC(=O)/C=C/c1ccc(O)c(OC)c1)C2(C)C (single isomer, unassigned) | > 10 |  | > 5 | > 50
0.0009 | > 10 | > 10 | > 10 | > 10 | CCCC(=O)O[C@]12C([C@@H]3C=C(CO)C[C@]4(O)C(=O)C(C)=C[C@H]4[C@@]3(O)[C@H](C)[C@H]1OC(=O)/C=C/c1ccccc1)C2(C)C (single isomer, unassigned) | > 10 | 8.71 | > 5 | > 5000
